“Also recorded” adds a separate entry of the source. Where two headings read alike, the source gives them in different places.
What was measured:
striato-pallidal synapse = test: Brain slice whole-cell patch-clamp, evoked IPSCs at striato-pallidal synapse; set-up: species or system rat; details: for effect on striato-pallidal transmission, compound alone: L-AP4 1 μM, PHCCC 30 μM, rat brain slice
Experimental: Animals: All studies were performed in an AAALAC accredited facility in accordance with all applicable guidelines regarding the care and use of animals. Animals were group housed with access to food and water ad libitum. Slice Preparation: All experiments were performed on slices from 26 to 30-d-old Sprague Dawley rats (Taconic, Germantown, N.Y.). Animals were killed by decapitation and brains were rapidly removed and submerged in an ice-cold solution containing (in mM): choline chloride 126, KCl 2.5, NaH2PO4 1.2, MgCl2 1.3, MgSO4 8, glucose 10, and NaHCO3 26, equilibrated with 95% O2/5% CO2 (11). The brain was glued to the chuck of a vibrating blade microtome (Leics Microsystems, Nussloch GmbH) and parasagittal slices (300 μm thick) were obtained. Slices were immediately transferred to a 500 ml holding chamber containing artificial cerebrospinal fluid (in mM): NaCl 124, KCl 2.5, MgSO4 1.3, NaH2PO4 1.0, CaCl2 2, glucose 20, and NaHCO3 26, equilibrated with 95% O2/5% CO2 that was maintained at 32° C. After 20-min at 32° C., the holding chamber was allowed to gradually decrease to room temperature. In all experiments 5 μM glutathione, 500 μM pyruvate, and 250 μM kynurenic acid were included in the choline chloride buffer and in the holding chamber ACSF. Electrophysiology: Whole-cell patch-clamp recordings were obtained (Marino et al., (2001) J. Neurosci. 21: 7001-7012. During recording, slices were maintained fully submerged on the stage of a 1 ml brain slice chamber at 32° C. and perfused continuously with equilibrated ACSF (2-3 ml/min). Neurons were visualized using a differential interference contrast microscope and an infrared video system. Patch electrodes were pulled from borosilicate glass on a two-stage puller and had resistances in the range of 3-7 MΩ when filled with the following internal solution: (in mM): potassium gluconate 125, NaCl 4, NaH2PO4 6, CaCl2 1, MgSO4 2, BAPTA-tetrapotassium salt 10, HEPES 10, Mg-ATP 2, Na2-GTP 0.3, pH=7.4. All recordings were done using HEKA EPC9 patch clamp amplifiers (HEKA Elektronik, Lambrecht/Pfalz, Germany). […]

rat mGluR4 = biological target: T1, rat mGluR4 (Rattus norvegicus, UniProt P31423); test: FLIPR Ca2+ flux assay, rat mGluR4; format: cell-based; details: n=3, read-out: EC50 for L-AP4 activation of rat mGluR4
T1 construct: expressed in transfected cells; host or cells: CHO or HEK cells, co-expressing Gαqi5

human mGluR4 [1] = biological target: T2, human mGluR4 (Homo sapiens, UniProt Q14833); test: FLIPR Ca2+ flux assay, human mGluR4; format: cell-based; set-up: expressed in transfected cells; host or cells: CHO or HEK cells, co-expressing Gαqi5; details: n=3, read-out: EC50 for L-AP4 activation of human mGluR4
Target sequence in this assay (Q14833 33-912): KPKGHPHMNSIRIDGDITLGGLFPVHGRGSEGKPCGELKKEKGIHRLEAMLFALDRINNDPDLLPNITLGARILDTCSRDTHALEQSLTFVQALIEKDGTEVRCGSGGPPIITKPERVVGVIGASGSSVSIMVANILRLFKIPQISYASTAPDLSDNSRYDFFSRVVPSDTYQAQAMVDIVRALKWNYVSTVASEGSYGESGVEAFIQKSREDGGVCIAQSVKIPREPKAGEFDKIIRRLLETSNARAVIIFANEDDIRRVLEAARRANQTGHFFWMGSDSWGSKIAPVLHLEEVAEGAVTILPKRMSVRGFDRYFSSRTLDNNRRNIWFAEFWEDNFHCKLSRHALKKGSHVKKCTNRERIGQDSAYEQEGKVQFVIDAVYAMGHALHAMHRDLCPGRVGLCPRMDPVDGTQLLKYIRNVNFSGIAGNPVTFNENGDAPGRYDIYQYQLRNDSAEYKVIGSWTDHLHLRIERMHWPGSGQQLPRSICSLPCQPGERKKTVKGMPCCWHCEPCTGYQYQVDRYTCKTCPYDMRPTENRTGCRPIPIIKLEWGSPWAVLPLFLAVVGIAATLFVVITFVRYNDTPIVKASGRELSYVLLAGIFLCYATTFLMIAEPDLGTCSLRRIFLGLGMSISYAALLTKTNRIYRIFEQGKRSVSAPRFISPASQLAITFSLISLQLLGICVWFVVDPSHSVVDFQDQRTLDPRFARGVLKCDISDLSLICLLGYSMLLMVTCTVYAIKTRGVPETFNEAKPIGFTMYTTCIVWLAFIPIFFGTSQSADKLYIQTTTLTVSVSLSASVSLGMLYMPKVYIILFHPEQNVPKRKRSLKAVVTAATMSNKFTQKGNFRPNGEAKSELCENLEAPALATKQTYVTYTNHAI
Experimental: (§1) Cells expressing mGluR2, mGluR4, mGluR7 and mGluR8 were coexpressed with Gα16, Gαqi5, Gα15 and Gα15, respectively. Cells were evaluated using a fluorometric imaging plate reader (FLIPR, Molecular Devices, Sunnyvale, Calif.), to measure their ability to mobilize Ca^2+ in response to appropriate agonists (i.e., glutamate and L-AP4).
(§2) CHO or HEK cells expressing mGluR receptors (mGluR CHO or HEK cells) were plated (50,000-70,000 cells/well) in clear-bottomed, poly-D-lysine-coated plates (Becton-Dickinson) in glutamate/glutamine-free medium. The plated cells were grown overnight at 37° C. in the presence of 6% CO2. The following day, the cells were washed with 3×100 μl assay buffer (Hanks Balanced Salt Solution containing 20 mM HEPES, 2.5 mM probenecid, and 0.1% bovine serum albumin) using a Skatron Embla cell washer. The cells were incubated with 1 μM Fluo-4AM (Molecular Probes, Eugene, Oreg.) for 1 h at 37° C. and 6% CO2. The extracellular dye was removed by washing as described above. […] Ca^2+ flux was measured using a FLIPR.

human mGluR4 [2] = biological target: T2, human mGluR4; test: FLIPR Ca2+ flux assay in mGluR4 CHO cells
Experimental: as §1, §2

[3] = test system: reserpine-induced akinesia; test: Reserpine-induced akinesia model of Parkinson's disease; format: in vivo; details: rat, 75 nmol icv, reserpine 5 mg/kg sc, beam breaks/30 min
Experimental: Behavior: Third ventricle cannulated male Sprague-Dawley rats (250-350) were purchased from Taconic Farms (Germantown, N.Y.) with guide cannula implanted such that subsequent placement of an injection cannula allowed for infusion into the third ventricle. These rats were used for intracerebral ventricular (icy) injection of test compounds within one week of arrival to the testing facility. All experiments were carried out during the light cycle (6.00-18.00).
Rats were injected with reserpine (5 mg/kg sc, dissolved in 1% acetic acid) and kept in their home cages for 1.5-2 hr post-injection. Activity was measured by placing rats in photocell activity cages (Hamilton-Kinder, Inc., Poway, Calif.) equipped with 16×16 infrared beams. […] Five min following the injection of test compound or vehicle, motor activity was recorded for an additional 30 min for each rat. Motor activity (cumulative beam breaks/30-min period) was recorded both pre- and post-drug treatment for each rat. […] Post hoc comparisons were performed using the Bonferroni test. Statistical significance was achieved when p<0.05. Data are expressed as mean +/− one SEM.

mGluR4 = test: FLIPR Ca2+ flux assay in mGluR4 CHO cells; details: in the presence of 10 μM PHCCC
Experimental: as §1, §2

any other mGluR subtype = test: FLIPR Ca2+ flux assay, other mGluR subtypes (activation or potentiation); format: cell-based; details: 10 μM
mGluR2 = biological target: T3, mGluR2 (Homo sapiens, UniProt Q14416); test: FLIPR Ca2+ flux assay, mGluR2 antagonism; format: cell-based; details: 10 μM
T3 construct: expressed in transfected cells; host or cells: CHO or HEK cells, co-expressing Gα16

mGluR5a = biological target: T4, mGluR5a (Homo sapiens, UniProt P41594); test: FLIPR Ca2+ flux assay, mGluR5a antagonism; format: cell-based; details: 10 μM
T4 construct: expressed in transfected cells; host or cells: CHO or HEK cells

mGluR8 = biological target: T5, mGluR8 (Homo sapiens, UniProt O00222); test: FLIPR Ca2+ flux assay, mGluR8 antagonism; format: cell-based; details: 10 μM
T5 construct: expressed in transfected cells; host or cells: CHO or HEK cells, co-expressing Gα15

[4] = test system: lateral perforant path-dentate gyrus (LPP-DG) synapse (mGluR8); test: Hippocampal field recordings (fEPSPs), LPP-DG synapse; set-up: species or system rat; details: submaximal L-AP4; fEPSP slope
mGluR1b = biological target: T6, mGluR1b (Homo sapiens, UniProt Q13255); test: FLIPR Ca2+ flux assay, mGluR1b antagonism; format: cell-based; details: 10 μM
T6 construct: expressed in transfected cells; host or cells: CHO or HEK cells

[5] = test system: Schaffer collateral-CA1 (SC-CA1) synapse (mGluR7); test: Hippocampal field recordings (fEPSPs), SC-CA1 synapse; set-up: species or system rat; details: submaximal L-AP4; fEPSP slope

T1 sequence (P31423 33-912): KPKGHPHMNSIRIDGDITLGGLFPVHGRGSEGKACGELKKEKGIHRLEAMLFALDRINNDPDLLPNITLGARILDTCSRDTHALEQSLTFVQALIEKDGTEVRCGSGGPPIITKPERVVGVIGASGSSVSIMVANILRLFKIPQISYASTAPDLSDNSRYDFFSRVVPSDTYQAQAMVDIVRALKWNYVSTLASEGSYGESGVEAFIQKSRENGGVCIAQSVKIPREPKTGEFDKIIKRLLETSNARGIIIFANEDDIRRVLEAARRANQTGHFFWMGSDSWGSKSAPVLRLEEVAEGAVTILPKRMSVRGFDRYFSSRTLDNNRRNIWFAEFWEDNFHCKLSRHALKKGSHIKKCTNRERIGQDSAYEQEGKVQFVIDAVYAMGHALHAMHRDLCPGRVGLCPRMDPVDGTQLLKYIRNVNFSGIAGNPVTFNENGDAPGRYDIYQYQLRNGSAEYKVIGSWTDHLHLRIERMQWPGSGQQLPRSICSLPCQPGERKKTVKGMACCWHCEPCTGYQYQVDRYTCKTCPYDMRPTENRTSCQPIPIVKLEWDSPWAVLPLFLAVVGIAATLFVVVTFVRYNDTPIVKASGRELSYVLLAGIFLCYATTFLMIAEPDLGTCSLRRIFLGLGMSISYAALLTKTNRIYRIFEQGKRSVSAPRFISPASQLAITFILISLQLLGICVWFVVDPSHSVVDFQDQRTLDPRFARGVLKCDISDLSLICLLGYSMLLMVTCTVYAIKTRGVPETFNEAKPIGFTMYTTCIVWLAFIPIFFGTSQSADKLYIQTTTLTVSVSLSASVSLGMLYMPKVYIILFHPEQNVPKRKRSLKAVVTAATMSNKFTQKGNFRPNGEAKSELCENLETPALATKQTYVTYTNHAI
T4 sequence (P41594 21-1180 isoform P41594-2 limits assumed): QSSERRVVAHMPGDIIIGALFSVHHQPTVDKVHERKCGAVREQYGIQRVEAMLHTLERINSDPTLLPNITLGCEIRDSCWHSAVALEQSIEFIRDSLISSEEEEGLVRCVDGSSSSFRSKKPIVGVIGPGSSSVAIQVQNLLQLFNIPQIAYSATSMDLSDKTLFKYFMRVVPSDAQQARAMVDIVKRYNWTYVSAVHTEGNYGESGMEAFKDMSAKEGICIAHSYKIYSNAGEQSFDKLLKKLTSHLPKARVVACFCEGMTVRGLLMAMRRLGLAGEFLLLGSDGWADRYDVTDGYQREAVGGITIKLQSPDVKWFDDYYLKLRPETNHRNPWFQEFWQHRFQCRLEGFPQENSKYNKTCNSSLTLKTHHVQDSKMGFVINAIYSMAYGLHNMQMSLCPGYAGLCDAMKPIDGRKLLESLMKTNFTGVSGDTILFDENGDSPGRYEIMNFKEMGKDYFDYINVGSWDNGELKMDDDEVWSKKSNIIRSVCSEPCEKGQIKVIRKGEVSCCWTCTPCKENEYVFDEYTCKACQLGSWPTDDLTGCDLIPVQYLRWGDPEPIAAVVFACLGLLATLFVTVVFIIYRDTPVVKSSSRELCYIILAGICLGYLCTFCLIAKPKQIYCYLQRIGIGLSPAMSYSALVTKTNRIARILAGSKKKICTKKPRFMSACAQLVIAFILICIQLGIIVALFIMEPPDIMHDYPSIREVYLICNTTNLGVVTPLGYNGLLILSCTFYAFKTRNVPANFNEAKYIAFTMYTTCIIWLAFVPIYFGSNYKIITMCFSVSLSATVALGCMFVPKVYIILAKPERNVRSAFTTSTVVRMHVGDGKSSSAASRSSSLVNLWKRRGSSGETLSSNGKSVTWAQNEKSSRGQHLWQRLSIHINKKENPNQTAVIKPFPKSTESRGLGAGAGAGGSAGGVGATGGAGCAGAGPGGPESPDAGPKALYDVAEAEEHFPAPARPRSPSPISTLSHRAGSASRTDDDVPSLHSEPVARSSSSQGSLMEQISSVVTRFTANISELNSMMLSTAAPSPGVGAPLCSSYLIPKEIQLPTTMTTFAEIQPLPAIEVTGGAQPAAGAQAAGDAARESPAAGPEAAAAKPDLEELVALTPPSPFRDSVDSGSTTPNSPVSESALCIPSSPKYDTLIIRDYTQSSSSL
T6 sequence (Q13255 19-906 isoform Q13255-2 limits assumed): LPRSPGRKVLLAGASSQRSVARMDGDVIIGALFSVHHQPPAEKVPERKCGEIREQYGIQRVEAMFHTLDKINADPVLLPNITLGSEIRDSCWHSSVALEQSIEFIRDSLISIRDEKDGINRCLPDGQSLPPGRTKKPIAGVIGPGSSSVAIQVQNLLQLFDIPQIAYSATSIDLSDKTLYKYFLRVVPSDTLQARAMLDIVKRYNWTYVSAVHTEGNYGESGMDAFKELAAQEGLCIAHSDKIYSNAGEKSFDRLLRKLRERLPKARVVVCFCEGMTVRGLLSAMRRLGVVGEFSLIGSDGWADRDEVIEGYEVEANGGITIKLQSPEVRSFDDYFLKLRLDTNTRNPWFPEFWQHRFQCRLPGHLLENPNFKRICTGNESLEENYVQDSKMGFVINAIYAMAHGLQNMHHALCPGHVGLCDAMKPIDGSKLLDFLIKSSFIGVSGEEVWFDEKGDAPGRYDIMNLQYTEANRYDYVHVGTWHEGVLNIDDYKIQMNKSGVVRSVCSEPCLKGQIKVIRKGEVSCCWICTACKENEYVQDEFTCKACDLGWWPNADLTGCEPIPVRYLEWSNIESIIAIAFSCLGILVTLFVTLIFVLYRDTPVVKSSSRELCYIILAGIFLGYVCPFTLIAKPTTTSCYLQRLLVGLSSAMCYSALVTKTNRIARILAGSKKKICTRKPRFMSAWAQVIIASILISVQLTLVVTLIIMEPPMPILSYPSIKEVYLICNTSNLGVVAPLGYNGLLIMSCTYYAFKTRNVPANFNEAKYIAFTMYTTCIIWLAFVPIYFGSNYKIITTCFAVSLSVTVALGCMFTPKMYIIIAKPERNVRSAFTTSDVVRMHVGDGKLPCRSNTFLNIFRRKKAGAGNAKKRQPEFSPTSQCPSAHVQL
T3 sequence (Q14416 19-872): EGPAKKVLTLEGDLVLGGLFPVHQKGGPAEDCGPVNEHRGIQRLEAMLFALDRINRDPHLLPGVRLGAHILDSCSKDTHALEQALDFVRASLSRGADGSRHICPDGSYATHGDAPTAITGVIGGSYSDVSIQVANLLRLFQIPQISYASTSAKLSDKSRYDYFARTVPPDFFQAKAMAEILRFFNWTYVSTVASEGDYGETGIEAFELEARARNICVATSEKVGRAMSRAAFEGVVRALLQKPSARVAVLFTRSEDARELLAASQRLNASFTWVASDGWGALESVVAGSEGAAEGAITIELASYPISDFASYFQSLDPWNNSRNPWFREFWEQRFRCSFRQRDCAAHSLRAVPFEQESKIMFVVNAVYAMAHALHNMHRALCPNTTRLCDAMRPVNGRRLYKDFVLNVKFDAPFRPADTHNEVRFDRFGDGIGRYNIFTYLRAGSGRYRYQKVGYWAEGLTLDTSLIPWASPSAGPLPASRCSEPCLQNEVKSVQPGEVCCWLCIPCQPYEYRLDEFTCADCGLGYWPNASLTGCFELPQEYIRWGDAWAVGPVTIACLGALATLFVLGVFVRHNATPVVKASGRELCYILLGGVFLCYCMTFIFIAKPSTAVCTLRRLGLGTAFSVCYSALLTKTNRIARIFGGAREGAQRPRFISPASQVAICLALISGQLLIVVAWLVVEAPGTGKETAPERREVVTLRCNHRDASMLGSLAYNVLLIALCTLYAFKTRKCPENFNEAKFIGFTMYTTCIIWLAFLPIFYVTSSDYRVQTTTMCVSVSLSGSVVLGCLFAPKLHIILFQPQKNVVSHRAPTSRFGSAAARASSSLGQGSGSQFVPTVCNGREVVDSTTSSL

Compound	effect on striato-pallidal transmission, compound alone (striato-pallidal synapse)	EC50 (rat mGluR4; with 10 μM PHCCC) [nM]	EC50 (rat mGluR4; without PHCCC) [nM]	EC50 (human mGluR4 [1]; in the absence of PHCCC) [nM]	EC50 (human mGluR4 [1]; with 10 μM PHCCC) [nM]	effect on the response of mGluR4 to agonists (potentiation) (human mGluR4 [2]; concentrations up to 30 μM)	IC50 (human mGluR4 [2]; read-out: mGluR4 antagonist IC50, at higher concentrations) [nM]	locomotor activity (reversal of reserpine-induced akinesia) [3]	increase of the maximal effect of L-AP4 (mGluR4)	effect on striato-pallidal transmission, co-application with L-AP4 (striato-pallidal synapse; 30 μM PHCCC and 1 μM L-AP4, p<0.01, n=4)	activation or potentiation of responses of other mGluR subtypes (any other mGluR subtype)	block of response of mGluR2 to glutamate (mGluR2)	block of response of mGluR5a to glutamate (mGluR5a)	block of response of mGluR8 to glutamate (mGluR8)	effect on L-AP4-induced inhibition of transmission at LPP-DG synapse [4]	block of response of mGluR1b to glutamate (mGluR1b)	effect on L-AP4-induced inhibition of transmission at SC-CA1 synapse [5]
NC(CCP(=O)(O)O)C(=O)O [L-AP4]	small but significant inhibition	67.6 ± 5.2	832 ± 100	484 ± 45	71.4 ± 2.9	–	–	–	–	–	–	–	–	–	–	–	–
7-(hydroxylimino)cyclopropa[b]chromen-1a-carboxamide ethyl ester [CPCCOEt]	–	–	–	–	–	no mGluR4 potentiator activity; also recorded: did not have any effect	> 100000	no effect	–	–	–	–	–	–	–	–	–
N-phenyl-7-(hydroxylimino)cyclopropa[b]chromen-1a-carboxamide [PHCCC]	no effect	–	–	–	–	–	–	overcome inhibition of movement; also recorded: significant increase in locomotor activity	approximately two-fold	potentiate the effect of the mGluR4 agonist L-AP4 in inhibiting transmission; also recorded: marked inhibition	does not potentiate or activate any other mGluR subtype; also recorded: did not activate or potentiate	partially blocked	partially blocked	partially blocked	no significant effect	partially blocked	no significant effect

— patent US20100144858A1, “Treatment of movement disorders with a metabotropic glutamate 4 receptor positive allosteric modulator” (priority 2003, published 2010)
